Legend:
[1] = tested on: rat hippocampal slices; assay: Oxygen and glucose deprivation (15 minutes OGD, 2 hours reoxygenation) in hippocampal slices, MTT cell viability; assay type: cell-based
Method: (§1) Male Spague Dawley strain rats (250-325 g) were used. After anaesthesia by means of an intraperitoneal injection of 60 mg/Kg sodium pentobarbital (Euta-Lender®), they were decapitated with a guillotine and the brain was extracted after a craniotomy. The brain was immediately submersed in a dissection solution, a cold (4° C.) modified Krebs-Henseleit solution at pH 7.4, the composition of which is: 120 mM NaCl, 2 mM KCl, 0.5 mM CaCl2, 26 mM NaHCO3, 10 mM MgSO4, 1.18 mM KH2PO4, 11 mM glucose and 200 mM sucrose, bubbled with 95% O2-5% CO2. The hippocampi were isolated, embedded in 2% low melting point agarose (Sigma-Aldrich), and cut into 350 μm transverse slices in a vibratome (Leica VT1000S).
After the cutting in the vibratome, the slices were transferred to a vial with sucrose-free dissection Krebs solution, bubbled with 95% O2-5% CO2 for 60 minutes (equilibrium period).
After the equilibrating period, the medium was removed and an oxygenated solution (normal Krebs solution (120 mM NaCl, 2 mM KCl, 2 mM CaCl2, 26 mM NaHCO3, 1.19 mM MgSO4, 1.18 mM KH2PO4 and 11 mM glucose), bubbled with 5% CO2 and 95% O2 for 30 minutes (preincubation period), was introduced. The baseline slices were maintained in this oxygenated solution throughout the entire experiment. To induce OGD, the oxygenated solution was replaced with another one which lacked glucose and was bubbled with a mixture of gases of 5% CO2 and 95% N2 (anoxic solution). The slices were in a bath at 37° C. After inducing OGD, the anoxic medium was replaced with another one which contained the oxygenated solution (reoxygenation period).
To evaluate the effect of the compounds, they were incubated for the 30 minutes of the preincubation and throughout the OGD and during the reoxygenation. Two OGD-reoxygenation protocols were used: (i) 1 hour of OGD and 2 hours of reoxygenation and (ii) 15 minutes of OGD followed by 2 hours of reoxygenation.
When the OGD-reoxygenation protocol (ii): 15 minutes of OGD followed by 2 hours of reoxygenation was used, the slices were incubated with increasing concentrations of compound Ic (0.3 and 1 μM) or with increasing concentrations of compound Ib (1 and 3 μM). In the same study these two compounds of the invention were compared with N-acetylcysteine (NAC) at 10 mM. The baseline (slices in the absence of compound Ic or Ib and of OGD) and the control (slices in the absence of compound Ic or Ib and with OGD) were also included.
For the protocol of 15 minutes of OGD followed by 2 hours of reoxygenation, the cell viability was evaluated by means of the tetrazolium salt MTT, which is internalized in those cells which are viable and are therefore capable of reducing the tetrazolium to formazan which is an insoluble and coloured product which is deposited in the […]. To that end, after the experiment had ended, the hippocampal slices were incubated with MTT at a final concentration of 0.5 mg/mL in a Krebs-HEPES solution (in mM: NaCl, 144; KCl, 5.9; MgCl2, 1.2; CaCl2, 2; HEPES, 10; glucose, 11; at pH 7.3) at 37° C. After 3 hours, the medium was removed and the formazan precipitated in the solution was dissolved in dimethylsulfoxide. Then, the absorbance was measured in a plate reader (Labsystems iEMS Reader MF), at 500 nm. The data were represented taking the result of the baseline slices, i.e., those not subjected to OGD, as 100% viability.

[2] = tested on: rat hippocampal slices; assay: Oxygen and glucose deprivation (1 hour OGD, 2 hours reoxygenation) in hippocampal slices, LDH release; assay type: cell-based
Method: as §1
After the cutting in the vibratome, the slices were transferred to a vial with sucrose-free dissection Krebs solution, bubbled with 95% O2-5% CO2 for 60 minutes (equilibrium period). […]
For the protocol of 1 hour of OGD followed by 2 hours of reoxygenation, the viability was determined by measuring the release of LDH into the extracellular medium according to the method described in Example 3. The quantification of LDH was performed in samples taken (i) after the preincubation period, (ii) after the hour of OGD and (iii) after each hour of reoxygenation (1 hour and 2 hours).

Substance: methyl 2-acetamido-2-deoxy-3-O-(β-D-glucopyranosyluronic acid)-4,6-di-O-sulpho-α-D-glucopyranoside, trisodium salt [compound Ic]
- maximum statistically significant protection (cell viability, MTT) ([1]; 1 μM, 15 minutes OGD, 2 hours reoxygenation, baseline 100%, control 67%): 93%
- efficacy in comparison with N-acetylcysteine ([1]; Ic 0.3 and 1 μM, Ib 1 and 3 μM vs N-acetylcysteine 10 mM): higher efficacy
- protective effect against cell death (LDH release) ([2]; 1 μM, at 2 hours of reoxygenation after 1 hour OGD): 40%
- effect on cell death after one hour of OGD followed by 2 hours of reoxygenation ([2]; 1 and 10 μM): reduced cell death in a concentration-dependent
